Reference: patent US20110152093A1, “Herbicidal compositions comprising flufenacet” (Bayer CropScience AG, priority 2009, published 2011)

Experiments:
Assay type in all cases: in vivo
POAAN (Poa annua) = experiment: Post-emergence (PO) action against weeds, greenhouse trial, test method 2; conditions: PO application; g of AS/ha: (A) 240, (B) 1200, (C) 140, (A)+(B)+(C) 240 + 1200 + 140
Description: (§1) In the standard design of the test, seeds of various broad-leaved weed and weed grass biotypes (origins) were sown in a 8-13 cm diameter pot filled with natural soil of a standard field soil (loamy silt; non-sterile) and covered with a covering soil layer of about 1 cm. The pots were then cultivated in a greenhouse (12-16 h of light, temperature day 20-22° C., night 15-18° C.) until the time of application. The pots were treated on a laboratory track sprayer with spray liquors comprising the compositions according to the invention, mixtures of the prior art or components used individually. Application of the active compounds or active compound combinations formulated as WG, WP, EC or otherwise was carried out at the appropriate growth stages of the plants. The application rate for the spray application was 100-600 l of water/ha. After the treatment, the plants were returned to the greenhouses.
(§2) About 3 weeks after the application, the soil action or/and foliar action was assessed visually according to a scale of 0-100% in comparison to an untreated comparative group: 0%=no noticeable effect compared to the untreated comparative group; 100%=full effect compared to the untreated comparative group.
(§3) (notes: the term “seeds” also includes vegetative propagation forms such as, for example, rhizome pieces; abbreviations used: h light=hours of illumination, g of AS/ha=gram of active substance per hectare, l/ha=liter per hectare, S=sensitive, R=resistant) • 1. Pre-emergence action against weeds: seeds of various broad-leaved weed and weed grass biotypes (origins) were sown in a 8-13 cm diameter pot filled with natural soil of a standard field soil (loamy silt; non-sterile) and covered with a covering soil layer of about 1 cm. The pots were then cultivated in a greenhouse (12-16 h of light, temperature day 20-22° C., night 15-18° C.) until the time of application. The pots were treated at the BBCH stage 00-10 of the seeds/plants on a laboratory track sprayer with spray liquors comprising the compositions according to the invention, mixtures or components used individually, as WG, WP, EC or other formulations. The application rate for the spray application was 100-600 l of water/ha. After the treatment, the plants were returned to the greenhouses and, when required, treated with fertilizer and watered. • 2. Post-emergence action against weeds: seeds of various broad-leaved weed and weed grass biotypes (origins) were sown in a 8-13 cm diameter pot filled with natural soil of a standard field soil (loamy silt; non-sterile) and covered with a covering soil layer of about 1 cm. The pots were then cultivated in a greenhouse (12-16 h of light, temperature day 20-22° C., night 15-18° C.) until the time of application. The pots were treated at various BBCH stages between 11-25 of the seeds/plants, i.e. generally between two to three weeks after the start of the cultivation, on a laboratory track sprayer with spray liquors comprising the compositions according to the invention, mixtures or components used individually, as WG, WP, EC or other formulations. The application rate for the spray application was 100-600 l of water/ha. After the treatment, the plants were returned to the greenhouses and, when required, treated with fertilizer and watered. • 3. […]

VIOAR (Viola arvensis) = experiment: as above; conditions: PO application; g of AS/ha: (A) 240, (B) 1200, (C) 140, (A)+(B)+(C) 240 + 1200 + 140
Description: as §1, §2, §3

[1] = system: HORVS (Hordeum vulgare, summer barley); experiment: PE crop compatibility at different soil pH values, test method 10; conditions: PE application, g of AS/ha: (A) 90, (B) 1200, (C) 140, (A)+(B)+(C) 90 + 1200 + 140
Description: as §1, §2

[2] = system: HORVS (Hordeum vulgare, summer barley); experiment: Action under various soil conditions (soil types), test method 7, crop compatibility; conditions: g of AS/ha: (A) 90, (B) 1200, (C) 140, (A)+(B)+(C) 90 + 1200 + 140
Description: as §1, §2, §3

AVEFA (Avena fatua) [3] = experiment: Pre-emergence (PE) action against weeds, greenhouse trial, test method 1; conditions: PE application; g of AS/ha: (A) 90, (B) 1200, (C) 140, (A)+(B)+(C) 90 + 1200 + 140
Description: as §1
(§4) About 3 weeks after the application, the soil action or/and foliar action was assessed visually according to a scale of 0-100% in comparison to an untreated comparative group: 0%=no noticeable effect compared to the untreated comparative group; 100%=full effect compared to the untreated comparative group. […]

[4] = system: MATCH (Matricaria chamomilla); experiment: as above; conditions: PE application; g of AS/ha: (A) 90, (B) 1200, (C) 140, (A)+(B)+(C) 90 + 1200 + 140
Description: as §1, §4

STEME (Stellaria media) = experiment: Action under various soil conditions (soil types), test method 7; conditions: g of AS/ha: (A) 90, (B) 1200, (C) 140, (A)+(B)+(C) 90 + 1200 + 140
Description: as §1, §2
(§5) (notes: the term “seeds” also includes vegetative propagation forms such as, for example, rhizome pieces; abbreviations used: h light=hours of illumination, g of AS/ha=gram of active substance per hectare, l/ha=liter per hectare, S=sensitive, R=resistant) • 1. Pre-emergence action against weeds: seeds of various broad-leaved weed and weed grass biotypes (origins) were sown in a 8-13 cm diameter pot filled with natural soil of a standard field soil (loamy silt; non-sterile) and covered with a covering soil layer of about 1 cm. The pots were then cultivated in a greenhouse (12-16 h of light, temperature day 20-22° C., night 15-18° C.) until the time of application. The pots were treated at the BBCH stage 00-10 of the seeds/plants on a laboratory track sprayer with spray liquors comprising the compositions according to the invention, mixtures or components used individually, as WG, WP, EC or other formulations. The application rate for the spray application was 100-600 l of water/ha. After the treatment, the plants were returned to the greenhouses and, when required, treated with fertilizer and watered. • 2. Post-emergence action against weeds: seeds of various broad-leaved weed and weed grass biotypes (origins) were sown in a 8-13 cm diameter pot filled with natural soil of a standard field soil (loamy silt; non-sterile) and covered with a covering soil layer of about 1 cm. The pots were then cultivated in a greenhouse (12-16 h of light, temperature day 20-22° C., night 15-18° C.) until the time of application. The pots were treated at various BBCH stages between 11-25 of the seeds/plants, i.e. generally between two to three weeks after the start of the cultivation, on a laboratory track sprayer with spray liquors comprising the compositions according to the invention, mixtures or components used individually, as WG, WP, EC or other formulations. The application rate for the spray application was 100-600 l of water/ha. After the treatment, the plants were returned to the greenhouses and, when required, treated with fertilizer and watered. • 3. Selective pre-emergence action: seeds of various crop species (origins) were sown in a 8-13 cm diameter pot filled with natural soil of a standard field soil (loamy silt; non-sterile) and covered with a covering soil layer of about 1 cm. The pots were then cultivated in a greenhouse (12-16 h of light, temperature day 20-22° C., night 15-18° C.) until the time of application. The pots were treated at the BBCH stage 00-10 of the seeds/plants on a laboratory track sprayer with spray liquors comprising the compositions according to the invention, mixtures or components used individually, as WG, WP, EC or other formulations. The application rate for the spray application was 100-600 l of water/ha. […]

[5] = system: MATCH (Matricaria chamomilla); experiment: as above; conditions: g of AS/ha: (A) 90, (B) 1200, (C) 140, (A)+(B)+(C) 90 + 1200 + 140
Description: as §1, §2, §5

AVEFA (Avena fatua) [6] = experiment: PE action at different soil pH values, test method 10; conditions: PE application, g of AS/ha: (A) 90, (B) 1200, (C) 140, (A)+(B)+(C) 90 + 1200 + 140
Description: as §1, §2

[7] = system: HORVS (Hordeum vulgare, summer barley); experiment: Selective pre-emergence action (crop compatibility), greenhouse trial, test method 3; conditions: PE application; g of AS/ha: (A) 90, (B) 1200, (C) 140, (A)+(B)+(C) 90 + 1200 + 140
Description: as §1, §4

In the case of `CCC(CC)Nc1c([N+](=O)[O-])cc(C)c(C)c1[N+](=O)[O-]` [(B) pendimethalin, N-(1-ethylpropyl)-3,4-dimethyl-2,6-dinitrobenzenamine], the “activity POAAN (visual, scale 0-100%)” value (POAAN (Poa annua)) is reported as 0%, the “activity VIOAR (visual, scale 0-100%)” value (VIOAR (Viola arvensis)) is reported as 30% and the “activity HORVS pH 7.4 (crop plant)” value ([1]; soil pH 7.4) is reported as 0%. For the same compound, the “activity HORVS pH 8.4 (crop plant)” value ([1]; soil pH 8.4) was 15%, the “activity HORVS IU soil (crop plant)” value ([2]; IU soil) was 0% and the “activity HORVS IU/EC73 soil (crop plant)” value ([2]; IU/EC73 soil) was 0%. For the same compound, the “activity AVEFA” value (AVEFA (Avena fatua) [3]) was 40%, the “activity MATCH” value [4] was 18% and the “activity STEME IU soil” value (STEME (Stellaria media); IU soil) was 85%. The “activity STEME IU/EC73 soil” value (STEME (Stellaria media); IU/EC73 soil) was 55%, the “activity MATCH IU soil” value ([5]; IU soil) was 10% and the “activity MATCH IU/EC73 soil” value ([5]; IU/EC73 soil) was 0%. For the same compound, the “activity AVEFA pH 7.4” value (AVEFA (Avena fatua) [6]; soil pH 7.4) was 10%, the “activity AVEFA pH 8.4” value (AVEFA (Avena fatua) [6]; soil pH 8.4) was 30% and the “activity HORVS (crop plant)” value [7] was 50%.
